The values below come from publication PMC9645344, “Serotonin-releasing agents with reduced off-target effects” (Molecular Psychiatry, 2022).

Experiment [1] deals with T1, human SERT (Homo sapiens, UniProt P31645).
T1 construct: expressed in transfected cells
The experiment is described as follows: [3H]5-HT release assay in HEK293 cells (superfusion). The class given is cell-based. The conditions noted are these: 10 µM, SERT-expressing HEK293 cells. The protocol: HEK293 cells stably expressing SERT were seeded onto PDL-coated glass coverslips (5 mm diameter) that were placed into 96-well plates at a density of 40,000 cells per well the day before the experiment. Cells were preloaded with [^3H]5-HT (0.4 µM, 20 min at 37 °C). Subsequently, the cells were transferred into small chambers with a total volume of 200 µl and superfused with KHB at a flow rate of 0.7 ml per min for 40 min to establish a stable baseline before the collection of 2-min fractions was initiated. For each experiment, three basal fractions were collected before the cells were exposed to various concentrations (given in the figure legends) of the test drugs for five fractions. Subsequently, the cells were superfused with 1% SDS for three final fractions that served to determine the total amount of radioactivity present within the cells at the end of each experimental run. The amount of tritium within each fraction was determined by liquid scintillation counting, and release was expressed as percentage of radioactivity released in relation to the total radioactivity present at the beginning of that fraction. Observations from superfusion experiments were excluded in case of premature exposure to SDS.

Experiment [2] relates to C57BL/6N mice. As to the kind of experiment: Open-field test. Format: in vivo. The conditions noted are these: indicated doses (1, 5 and 10 mg kg-1) intraperitoneal, 1 h. The protocol:
(§1) All in vivo experiments were performed in adult mice (>6 weeks old). For the photometry and microdialysis experiments, which were carried out in Florida, male C57BL/6J mice from The Jackson Laboratory (Bar Harbor, ME, USA) were group-housed in polycarbonate cages (GM500, Tecniplast, Buguggiate, Italy) with lights on from 7 a.m. to 7 p.m. Food and water were provided ad libitum. Photometry and microdialysis experiments were performed in accordance with a protocol approved by the Institutional Animal Care and Use Committee at Florida Atlantic University. For the behavioral experiments, which were carried out in Vienna, C57BL/6N mice from Charles River (Sulzfeld, Germany) were group-housed in polycarbonate cages with lights on from 7 a.m. to 7 p.m. Food and water were provided ad libitum. Behavioral experiments were performed in accordance with a protocol approved by the Austrian national ethical committee on animal care and use (Bundesministerium für Wissenschaft und Forschung: BMWFW-66.009/0016-WF/V/3b/2015). All animal procedures were conducted in agreement with the ARRIVE guidelines and the U.K. Animal (Scientific Procedures) Act, 1986, and associated guidelines, EU Directive 2010/63/EU for animal experiments. Mice were given at least 1 week to acclimate before being used in any experiments.
(§2) For behavioral assays, animals were assigned to treatment groups and injected with test drugs by an unblinded observer.
Mice were placed into an open field arena (27.3 × 27.3 × 27.3 cm) surrounded by infrared beams to track movements. The total distance traveled over 1 h was recorded using Activity Monitor (Med Associates Inc., St. Albans, VT, USA) and interpreted as a measure of the psychostimulant effects. Animal sample size was confirmed using a post hoc analysis of the achieved power using G*Power3.1 [29]. Using a significance level (α) of 0.05 and an effect size f = 1.92 and a sample size of 7.5 animals (5–10)/group we achieved the commonly accepted statistical power (1−β) of 0.8.

Experiment [3] has as its target T1, human SERT. The experiment is described as follows: SERT uptake inhibition assay in HEK293 cells ([3H]5-HT). Format: cell-based. As to the method:
Human embryonic kidney 293 (HEK293) cells stably expressing the human isoforms of either DAT or SERT were maintained in Dulbecco’s Modified Eagle Medium (DMEM), supplemented with 10% fetal calf serum at a subconfluent state in humidified atmosphere (5% CO2, 37 °C).
Uptake inhibition assays were performed as described earlier. Briefly, HEK293 cells stably expressing human SERT or DAT were seeded onto poly- D-lysine (PDL) coated 96-well plates (40,000 cells well^−1) the day before an experiment. Prior to the uptake inhibition assay, DMEM was replaced with Krebs-HEPES buffer (KHB, 25 mM HEPES, 120 mM NaCl, 5 mM KCl, 1.2 mM CaCl2, 1.2 mM MgSO4, and 5 mM D-glucose, pH 7.3) and the cells were preincubated with test drugs for 5 min at room temperature. Uptake assays were initiated by adding 20 nM [^3H]MPP^+ to DAT cells or 100 nM [^3H]5-HT to SERT cells. After 180 s (DAT) or 60 s (SERT), the tritiated substrate was removed by aspiration. Cells were washed once with ice-cold KHB, then lysed in 1% sodium dodecyl sulfate (SDS) and subjected to liquid scintillation counting to quantify tritium accumulated in each sample. Non-specific uptake was determined in the presence of mazindol (1 µM) for DAT or paroxetine (1 µM) for SERT and subtracted throughout.

Experiment [4] concerns C57BL/6N mice. As to the kind of experiment: Forced-swim test (FST). The class given is in vivo. The conditions noted are these: for immobility time in the FST versus vehicle: mice. The protocol: as §1, §2
The FST was performed as previously described. In brief, mice were placed for 6 min in a beaker (diameter: 19 cm, height: 23 cm), halfway filled with water (22–23 °C), and the immobility time was quantified using the software Videotrack (Viewpoint, Champagne au Mont d’Or, France). Immobility was defined as the absence of any movement, except for those required to keep the head above the water. The time spent immobile during the final 4 min of the test was used as a measure of behavioral despair. Animal sample size was confirmed using a post hoc analysis of the achieved power using G*Power3.1 [29]. Using a significance level (α) of 0.05 and an effect size f = 2.5 and a sample size of 6 animals/group we achieved the commonly accepted statistical power (1−β) of 0.8.

T1 sequence (P31645 whole entry): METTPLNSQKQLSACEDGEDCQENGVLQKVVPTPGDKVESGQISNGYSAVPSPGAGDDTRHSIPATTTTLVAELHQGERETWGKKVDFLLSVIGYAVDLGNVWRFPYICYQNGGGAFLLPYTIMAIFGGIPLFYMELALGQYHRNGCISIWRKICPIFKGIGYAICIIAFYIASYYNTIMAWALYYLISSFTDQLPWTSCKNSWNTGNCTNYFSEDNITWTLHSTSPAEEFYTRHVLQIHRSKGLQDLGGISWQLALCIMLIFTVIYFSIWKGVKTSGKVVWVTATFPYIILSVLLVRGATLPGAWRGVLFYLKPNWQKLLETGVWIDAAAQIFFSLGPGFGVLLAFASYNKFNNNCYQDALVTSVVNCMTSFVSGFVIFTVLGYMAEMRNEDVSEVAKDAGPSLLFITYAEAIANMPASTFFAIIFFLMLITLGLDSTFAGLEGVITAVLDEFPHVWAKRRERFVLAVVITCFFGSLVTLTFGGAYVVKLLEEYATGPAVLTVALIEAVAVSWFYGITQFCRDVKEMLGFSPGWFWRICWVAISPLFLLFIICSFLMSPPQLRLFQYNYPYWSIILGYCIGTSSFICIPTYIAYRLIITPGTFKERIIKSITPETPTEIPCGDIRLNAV

With `Cc1ccc(C(=O)[C@H](C)N)cc1` [S-4-MC, 4-methylcathinone], the “effect on release of preloaded [3H]5-HT” value at human SERT [1] is on record as “robustly increased”. The “horizontal locomotor activity (total distance traveled) in the open field test” value with C57BL/6N mice [2] is “did not differ from vehicle”. At human SERT [3], this compound displayed an IC50 of 12.6 µM. In addition, the “immobility time in the FST versus vehicle” value with C57BL/6N mice [4] (1 mg kg-1 intraperitoneal), in the experiment on C57BL/6N mice [4] (5 mg kg-1 intraperitoneal) and in the experiment on C57BL/6N mice [4] (10 mg kg-1 intraperitoneal) was “significantly reduced immobility time versus vehicle” each time. The “time spent immobile in the FST, male and female mice” value with C57BL/6N mice [4] (5 mg kg-1 intraperitoneal) is given as “significantly reduced the time spent immobile regardless of sex”.

Turning to `CN[C@@H](C)C(=O)c1ccc(C(F)(F)F)cc1` [S-4-TFMMC, 4-trifluoromethyl-N-methylcathinone], the “effect on release of preloaded [3H]5-HT” value at human SERT [1] is “robustly increased”. Also, in the experiment on C57BL/6N mice [2], the “horizontal locomotor activity (total distance traveled) in the open field test” value was “did not differ from vehicle”. It took 10.2 µM to reach half-maximal inhibition against human SERT [3] (IC50). Further, in the experiment on C57BL/6N mice [4] (10 mg kg-1 intraperitoneal), the “time spent immobile in the FST, male and female mice” value was “significantly reduced the time spent immobile regardless of sex”; the “immobility time in the FST versus vehicle” value was “significantly differed from the vehicle group”.

A word on the IC50: it is the concentration that inhibits the measured activity by half.
